Among the test systems are DLD-1 colon; HOP-18 NSCLC; KM20L2 colon; LXFL 529 NSCLC; M19-MEL melanoma; RXF-631 renal; XF 498 CNS; DMS 273 small cell lung; MDA-N; P388 leukemia; P388/ADR leukemia; SN12K1 renal.
What all share (experiment): NCI tumour cell line growth inhibition, 48 h

SMILES strings stand for the structures. Several values for one entry are separate records, joined by “and”; a condition that tells them apart may be missing. Equal values may be shown once.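 Cells were grown in 96-well plates and exposed to each compound for 48 hours at five concentrations; endpoints were interpolated linearly between bracketing concentrations, or set to the highest concentration if not reached. GI50 marks 50% less growth. The concentration for full growth arrest is given as TGI.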 Bounds are passed on as bounds.

For `CC1(C)CCc2cc3c(cc2O1)OCC1c2cc4c(cc2OC31)OCO4` (centres undefined), the TGI in the test with DLD-1 colon, with HOP-18 NSCLC, with KM20L2 colon, with LXFL 529 NSCLC, in the test with M19-MEL melanoma and in the test with RXF-631 renal was above 100 µM throughout. The TGI with XF 498 CNS was above 100 µM.
Regarding `COC(=O)C1=C(C(=O)OC)C23CC1C1C(C(=O)OC)=C(C(=O)OC)C12C1C=CC3C2C(=O)OC(=O)C21` (centres undefined), the TGI in the test with DLD-1 colon, in the test with DMS 273 small cell lung, in the test with KM20L2 colon, in the test on LXFL 529 NSCLC, in the test on M19-MEL melanoma and with RXF-631 renal was above 100 µM throughout. The molecule also came in with a TGI in the test with XF 498 CNS above 100 µM.
As for `CC(=O)O[C@]1(C)OC(=O)[C@@H](C)N1[N+](=O)[O-]`, the TGI with DLD-1 colon, in the test with DMS 273 small cell lung, in the test on HOP-18 NSCLC, with KM20L2 colon, in the test on LXFL 529 NSCLC and in the test with M19-MEL melanoma was above 100 µM in each case.
On to `O=C1c2ccccc2C(=O)c2c(NCCNCCO)ccc(O)c21`, for which the TGI was determined as 15.6 µM with DLD-1 colon; 10.7 µM with DMS 273 small cell lung; 21.4 µM in the test with HOP-18 NSCLC; 12.3 µM in the test with KM20L2 colon; 15.5 µM in the test with LXFL 529 NSCLC; 12.4 µM in the test with M19-MEL melanoma. The TGI in the test with XF 498 CNS came out at 18.8 µM.
`NNC(=S)N/N=C(/C(=O)Nc1cc(Cl)ccc1Cl)C1C(=O)Nc2ccccc2S1=O` (centres undefined): the TGI in the test with DLD-1 colon, with HOP-18 NSCLC, in the test with KM20L2 colon, in the test with LXFL 529 NSCLC, in the test with M19-MEL melanoma and with XF 498 CNS was above 100 µM each time.
As to `CCOC(=O)C1=C(O)CSC1=Nc1ccccc1`, the TGI in the test on DLD-1 colon, in the test with DMS 273 small cell lung, in the test with KM20L2 colon, in the test with LXFL 529 NSCLC, in the test with M19-MEL melanoma and in the test on RXF-631 renal was above 100 µM throughout.
`O=C1C2=Nc3ccccc3C(O)N2c2ccccc21` (centres undefined) yielded a TGI in the test on MDA-N of 3.5 µM.
Still for that read-out and setting: the figure for `Cn1nnnc1N/N=C/c1ccccc1` is above 10 µM; for `Cc1ccc(Nc2n[nH]c(=S)s2)cc1` it is above 100 µM; for `CN(C)CCNC(=O)Cn1cc([N+](=O)[O-])c(=O)c2ccccc21` it is above 100 µM.
On the same count and under the same terms, the value for `C/C1=C/C2=CC(C)C[C@@H]2C(=O)[C@]2(C)C(=O)CC(C)(C)[C@H]2CC1=O` (some centres undefined) was above 50 µM.
Same read-out and setting: the value for `CN(C)CCOc1ccc(/C(=C(/CCCl)c2ccccc2)c2ccccc2)cc1` was 30.2 µM.
On to `O=c1cccccc1NCCCCCCNc1cccccc1=O`, for which the TGI in the test on DLD-1 colon, in the test with DMS 273 small cell lung, in the test with HOP-18 NSCLC, in the test with KM20L2 colon, with LXFL 529 NSCLC and with M19-MEL melanoma was above 100 µM each time. Further, in the test with RXF-631 renal, the TGI is above 100 µM.
The molecule `C=C(C)C1CC2(C)C(C)CC(OC(=O)/C(C)=C\C)CC2C(OC(=O)/C(C)=C\C)C1O` (centres undefined) showed a TGI in the test on MDA-N above 100 µM.
On to `COc1ccc2c(c1)C(=O)C(=O)c1cc(O)c(OC)c(OC)c1-2`, for which, in the test on MDA-N, the GI50 was 1.28 µM; the TGI is 1.4 µM and 2.55 µM.
In turn, `OCC1OC(OCC(O)C(O)C(O)C(/C=N/Nc2ccccc2)=N/Nc2ccccc2)C(O)C(O)C1O` (centres undefined) gave a TGI with MDA-N above 100 µM.
For `COc1ccc2c(c1)[n+]([O-])c(-c1ccccc1)c(N)[n+]2[O-]`, the TGI with DLD-1 colon is above 100 µM; in the test on DMS 273 small cell lung it was above 100 µM; in the test on HOP-18 NSCLC, 97 µM; with KM20L2 colon it was above 100 µM; in the test with LXFL 529 NSCLC, 98.7 µM; in the test on M19-MEL melanoma it was above 100 µM. Moreover, in the test with XF 498 CNS, the TGI worked out at 82.6 µM.
Regarding `O=C1OCCC1C(O)C1c2ccccc2-c2ccccc21` (centres undefined), the TGI in the test with DLD-1 colon, in the test with LXFL 529 NSCLC, in the test with M19-MEL melanoma and in the test with XF 498 CNS was above 100 µM in each case.
Turning to `c1ccc(-c2cc(C3CO3)c3ccccc3n2)cc1` (centres undefined), the TGI with MDA-N amounted to 39.4 µM.
Consider `COc1ccc(C(=O)C(C(=O)C(=O)Nc2ccc(Cl)c(Cl)c2)c2ccc(OC)cc2)cc1` (centres undefined), for which the TGI with DLD-1 colon, with DMS 273 small cell lung, with HOP-18 NSCLC, with KM20L2 colon, in the test on LXFL 529 NSCLC and with M19-MEL melanoma was above 100 µM throughout. The molecule further gave a TGI in the test on XF 498 CNS above 100 µM.
Regarding `O=c1c2ccccc2n2n1CC(O)C2` (centres undefined), the TGI in the test with DLD-1 colon, in the test on DMS 273 small cell lung, in the test with HOP-18 NSCLC, with KM20L2 colon, with M19-MEL melanoma and in the test with XF 498 CNS was above 100 µM each time.
As for `CCN1C(NN)=NS(=O)(=O)c2ccccc21`, the TGI in the test on MDA-N is above 100 µM.
With `O=S(=O)(O)c1ccc(-c2nnc(-c3ccccn3)nc2-c2ccc(S(=O)(=O)O)o2)o1`, the TGI in the test on MDA-N is above 100 µM.
Regarding `Cc1c(C(=O)C/C(=N/NC(=O)C[n+]2ccccc2)C(=O)Nc2ccccc2)[n+](=O)c2ccccc2n1O`, the TGI in the test on DLD-1 colon, with DMS 273 small cell lung, in the test on HOP-18 NSCLC, in the test on KM20L2 colon, in the test with LXFL 529 NSCLC and in the test with M19-MEL melanoma was above 100 µM throughout. Moreover, the TGI in the test on RXF-631 renal and in the test on XF 498 CNS was above 100 µM each time.
For the molecule `CN(N=O)C(=O)N[C@@H](C=O)[C@@H](O)[C@H](O)[C@H](O)CO`, the GI50 was above 750 µM in the test on DLD-1 colon; above 750 µM in the test on DMS 273 small cell lung; above 750 µM in the test on HOP-18 NSCLC; 619 µM in the test with M19-MEL melanoma; above 750 µM with XF 498 CNS. The TGI is above 750 µM with DLD-1 colon; 575 µM and > 750 µM in the test on DMS 273 small cell lung; 216 µM and > 750 µM in the test on HOP-18 NSCLC; above 750 µM in the test on KM20L2 colon; above 750 µM in the test on LXFL 529 NSCLC; 629 µM and > 750 µM in the test on M19-MEL melanoma. Also, the TGI in the test with MDA-N was above 750 µM; with P388 leukemia, above 504 µM; in the test with P388/ADR leukemia, 635 µM; in the test on SN12K1 renal, 546 µM; with XF 498 CNS it was above 750 µM.
As for `COc1ccc(N=Nc2c(-c3ccccc3)nn(C(=O)CC(=O)Nc3cccc(Cl)c3)c2-c2ccccc2)cc1`, the TGI in the test with DLD-1 colon, in the test on DMS 273 small cell lung, with HOP-18 NSCLC, in the test on KM20L2 colon, in the test with LXFL 529 NSCLC and with M19-MEL melanoma was above 100 µM each time. The same molecule returned a TGI in the test on XF 498 CNS above 100 µM.
In the test on MDA-N, `Cc1ccc(C)c(NC(=O)NCc2ccc(Cl)cc2)c1` yielded a TGI above 100 µM.
As for `CC(C)(C)CC(C)(C)c1cc2c(O)c(c1)Cc1cc(C(C)(C)CC(C)(C)C)cc(c1O)Cc1cc(C(C)(C)CC(C)(C)C)cc(c1O)Cc1cc(C(C)(C)CC(C)(C)C)cc(c1O)Cc1cc(C(C)(C)CC(C)(C)C)cc(c1O)Cc1cc(C(C)(C)CC(C)(C)C)cc(c1O)C2`, the TGI in the test on DLD-1 colon, in the test with DMS 273 small cell lung, in the test with KM20L2 colon, in the test with LXFL 529 NSCLC, with M19-MEL melanoma and in the test with RXF-631 renal was above 100 µM throughout. In the test on XF 498 CNS, this molecule displayed a TGI above 100 µM.
`CN=C(NC#N)NCCSCc1nc[nH]c1C` had a TGI in the test with MDA-N above 100 µM.
On the same count and under the same terms, the figure for `Cc1cnc(/C=N\NC(N)=S)c2cccc(N)c12` is above 100 µM.
As to `C[C@]12CCc3nonc3C1CC[C@@H]1C2CC[C@]2(C)NC(=O)CCC12` (some centres undefined), the TGI with DMS 273 small cell lung, in the test with HOP-18 NSCLC, with KM20L2 colon, in the test on LXFL 529 NSCLC, with M19-MEL melanoma and with RXF-631 renal was above 100 µM each time. Further, the TGI in the test on XF 498 CNS is above 100 µM.
For the molecule `O=C1N(c2ccccc2)C(=O)C2(SC=NN2Cc2ccccc2)N1c1ccccc1` (centres undefined), the TGI with DLD-1 colon, with HOP-18 NSCLC, in the test on KM20L2 colon, with LXFL 529 NSCLC, in the test on M19-MEL melanoma and in the test with XF 498 CNS was above 100 µM in each case.
For `O=C([O][Hg][CH2]C1COC([CH2][Hg][O]C(=O)c2ccccc2)CO1)c1ccccc1` (centres undefined), the GI50 in the test with DLD-1 colon is 2.59 µM; in the test with DMS 273 small cell lung it was 4.51 µM; with HOP-18 NSCLC it was 10.8 µM; with KM20L2 colon, 17.9 µM; in the test with LXFL 529 NSCLC it was 1.53 µM; in the test on M19-MEL melanoma, 9.67 µM. Moreover, the GI50 with MDA-N is 12.5 µM and 3 µM; in the test on XF 498 CNS, 17.7 µM. For the same molecule, the TGI with DLD-1 colon is 7.25 µM; with DMS 273 small cell lung, 9.83 µM; in the test on HOP-18 NSCLC, 23.5 µM; with KM20L2 colon, 32.7 µM; in the test with LXFL 529 NSCLC, 2.86 µM; in the test with M19-MEL melanoma, 22.9 µM. For the same molecule, the TGI was 25.5 µM and 11.7 µM in the test on MDA-N; 31.6 µM in the test on XF 498 CNS.
Turning to `O=C(c1cc2ccccc2o1)N(Cc1ccccc1)c1ccccc1`, the TGI with DLD-1 colon is 56.6 µM; in the test with DMS 273 small cell lung, above 100 µM; in the test on HOP-18 NSCLC, 65.9 µM; in the test with KM20L2 colon it was 35.9 µM; in the test with LXFL 529 NSCLC, above 100 µM; with M19-MEL melanoma, 51.4 µM. Further, the TGI is above 100 µM with RXF-631 renal and 41.8 µM with XF 498 CNS.
`CC(=O)c1c(C)n(C)c2c1nnc1ccccc12` showed a TGI in the test on MDA-N above 100 µM.
Same read-out and setting: the value for `COC1CCC(O)C(/C=C/[N+](=O)[O-])C1` (centres undefined) was 5.56 µM.
On to `CC(=O)c1cccc(NC(=O)C(=O)C(C2OC(=O)c3ccccc32)[N+](=O)[O-])c1` (centres undefined), for which the TGI with DLD-1 colon, with KM20L2 colon, with LXFL 529 NSCLC, in the test with M19-MEL melanoma, in the test on RXF-631 renal and in the test with XF 498 CNS was above 100 µM throughout.

The values are drawn from PubChem BioAssay (NCI).
